Patent US6603046B1, “Bis-aromatic a,β-unsaturated ketones” (Lica Pharmaceuticals A/S, priority 1992, dated 2003)
Converted amounts (≈) assume the structure as drawn. “And” between values parts separate entries of the source, which are not always exact repeats. Equal entries are not always repeated. Where two headings read alike, the source gives them in different places. Marks after values point to notes of the source that are not given here.

Legend:
M. avium = assay: Radiometric MIC (Example 19); assay type: cell-based
Sarcina lutea = assay: MIC, macrodilution (Example 17); assay type: cell-based; settings: Micrococcus luteus; 1 strain
Eimeria tenella = assay: Anticoccidial activity in chickens infected with Eimeria tenella (Example 28); assay type: in vivo
M. intracellular = assay: Radiometric MIC (Example 19); assay type: cell-based; settings: n=9
[1] = system: P. yoelii (strain not characterized); assay: P. yoelii (strain not characterized) infection in mice, parasitemia, drug i.p. (Example 16); assay type: in vivo, BALB/c mice; settings: 5 mg per kg twice daily for 8 days
L. major promastigotes = L. major promastigotes from 4-days cultures, 3H-thymidine uptake (Examples 5, 14); assay type: cell-based, Leishmania major; settings: Leishmania major, Table 14.1, read-out: percentage inhibition of promastigotes (upper figure)
How it was run: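 Promastigotes harvested on day 4 of culture were exposed to compound, then pulsed with 100 μC 3H-thymidine for a further 18 h. Cells were collected on filter paper, washed, and incorporated radioactivity counted by scintillation.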

BCG = assay type: cell-based; settings: n = 3
[2] = Reaction with N-acetyl-L-cysteine, HPLC (Example 26); assay type: physicochemical; settings: 7 days
Protocol: Formation of N-acetyl-L-cysteine conjugates of licochalcone A. A solution of 1.5 mg of licochalcone A and 100 mg of N-acetyl-L-cysteine in acetonitrile0.13 M aqueous potassium phosphate buffer solution pH 7.5 (1:3) was left for 7 days at ambient temperature protected from light.

[3] = Serum concentration in rabbits after intravenous administration (Example 20); assay type: in vivo; settings: rabbit
Protocol: Number of rabbits: 1 rabbit for each group
Dose: 20 mg per kg body weight
Route: Intravenously, administered once
Samples: Samples were drawn from each rabbit twice.
Serum or plasma was diluted with one part of acetonitrile, left for 15 min at 4° C., and centrifugated for 3 min at 10,000 g. An aliquot of the supernatant was chromatographed at 37° C. by HPLC over Spherisorb ODS-2 (5 μm, 120×4.5 mm, Phase Separation LTD, UK) using acetonitrile aqueous acetic acid, 2%, (1:1) as an eluent, flow rate 1.5 ml/min, and UV detection (370 nm and 254 nm).

Strain = H37RV = assay: MIC with and without 10% human serum; assay type: cell-based; settings: for MIC: Mycobacterium tuberculosis, H37RV
[4] = Reaction with glutathione, HPLC (Example 26); assay type: physicochemical; settings: acetonitrile-phosphate buffer (1:3), 7 days, ambient temperature
Protocol: Formation of glutathione conjugates of licochalcone A. A solution of 1.5 mg of licochalcone A and 100 mg of glutathione in acetonitrile-0.13 M aqueous potassium phosphate buffer solution pH 75 (1:3) was left for 7 days at ambient temperature protected from light.

M. tuberculosis = assay: Radiometric MIC/MBC (Example 19); assay type: cell-based
Protocol: 63 strains of mycobacteria were used in this study. The bacteria were grown in Dubos broth media before susceptibility testing. Licochalcone A was isolated as described in Example 1. Licochalcone A was dissolved in dimethyl sulfoxide (DMSO) and diluted in distilled water to the desired concentration.
Susceptibility testing was performed radiometrically by using a BECTEC 460-TB apparatus (Becton Dickinson) in a confined atmosphere (5% CO2). […] The growth was expressed as a numerical value called the growth index (GI) which ranged from 1 to 999. The 7H12 vials were inoculated with 0.1 ml of an appropriately diluted Dubos broth culture to give a final inoculum of about 5×10^4 colony-forming units (CFU) per ml together with 0.1 ml of different concentrations of licochalcone A. The final concentrations of licochalcone A tested ranged from 1.25 μg/ml to 80 μg/ml. A vial without licochalcone A, but with an inoculum diluted 1:100, was included as a control. The final inoculum was determinate by culturing 0.1 ml from the control vial onto one Lowenstein-Jensen slant. The vials were incubated under stationary conditions at 35° C. and growth was monitored by daily GI determination for 7 days. At day 7, 0.1 ml from each vial with a GI reading <30 was cultured onto one Lowenstein-Jensen slant. Colony counts were enumerated after incubation at 35° C. for 3 weeks.

[5] = amount of feed consumed per kg chicken weight gain, doses as Table 28.1
[6] = in feed: salinomycin 70 ppm, 2,5 m4′ac and 2,4 mc 30 mg/kg/day, licochalcone A 10 mg/kg/day

Structure (SMILES): C=CC(C)(C)c1cc(/C=C/C(=O)c2ccc(O)cc2)c(OC)cc1O [Licochalcone A, licochalcone A]
- meanMIC (M. avium; AIDS patients, n=4): > 80 µg/mL
- MIC (M. avium; Mycobacterium avium, read-out: MIC, all M. avium/intracellular strains): ≥ 20 µg/mL
- meanMIC (M. avium; non AIDS patients, n=7): > 80 µg/mL
- MIC (Sarcina lutea): 4 µg/mL (≈ 11.8 µM)
- percentages of chickens showing pathological signs versus infected control group (Eimeria tenella; 10 mg/kg/day in feed): much lower
- feed consumption after 7 days of treatment (Eimeria tenella; [5]): 1.26
- feed consumption after 14 days of treatment (Eimeria tenella; [5]): 1.31
- Weight gain in 7 days after initiation of treatment (Eimeria tenella; [6]): 414 grams per chicken
- Weight gain in 14 days after initiation of treatment (Eimeria tenella; [6]): 864^b grams per chicken
- Difference in weight gain to group 5 (control infected) after treatment for 14 days (Eimeria tenella; normal variation ±2%): ^bDifference between groups 4 (licochalcone A) and 5 (control infected) after treatment for 14 days is 7.6%.
- Mortality (Eimeria tenella; number of chickens, groups of 35, licochalcone A 20): 0
- meanMIC (M. intracellular): 50.0 µg/mL
- rangeMIC (M. intracellular): 20 to 80 µg/mL
- Parasitemia, mean of 3 mice ([1]; D + 1): 0.03%
- Parasitemia, single mice ([1]; D + 1): 0.05% and 0.03% and 0.02%
- Parasitemia, mean of 3 mice ([1]; D + 2): 0.2%
- Parasitemia, single mice ([1]; D + 2): 0.5% and 0.05% and 0.01%
- Parasitemia, mean of 3 mice ([1]; D + 3): 1.0%
- Parasitemia, single mice ([1]; D + 3): 2.0% and 0.5%
- Parasitemia, mean of 3 mice ([1]; D + 4): 2.5%
- Parasitemia, single mice ([1]; D + 4): 4.0% and 1.5% and 2.0%
- Parasitemia, mean of 3 mice ([1]; D + 5): 2.5%
- Parasitemia, single mice ([1]; D + 5): 4.0% and 1.5% and 2.0%
- Parasitemia, mean of 3 mice ([1]; D + 6): 2.3%
- Parasitemia, single mice ([1]; D + 6): 4.5% and 2.0% and 1.0%
- Parasitemia, mean of 3 mice ([1]; D + 7): 2.2%
- Parasitemia, single mice ([1]; D + 7): 4.0% and 1.5% and 1.0%
- Parasitemia, mean of 3 mice ([1]; D + 8): 2.3%
- Parasitemia, single mice ([1]; D + 8): 4.0% and 1.5%
- Parasitemia, mean of 3 mice ([1]; D + 9): 2.2%
- Parasitemia, single mice ([1]; D + 9): 4.0% and 1.0% and 1.5%
- Parasitemia, mean of 3 mice ([1]; D + 11): 1.7%
- Parasitemia, single mice ([1]; D + 11): 2.0% and 1.0%
- Parasitemia, mean of 3 mice ([1]; D + 12): 1.7%
- Parasitemia, single mice ([1]; D + 12): 2.0% and 1.0%
- Parasitemia, mean of 3 mice ([1]; D + 14): 0.7%
- Parasitemia, single mice ([1]; D + 14): 1.0% and 0.0%
- Parasitemia, mean of 3 mice ([1]; D + 16): 0.03%
- Parasitemia, single mice ([1]; D + 16): 0.0% and 0.1%
- Parasitemia, mean of 3 mice ([1]; D + 18): 0.0%
- Parasitemia, single mice ([1]; D + 18): 0.0%
- Parasitemia, mean of 3 mice ([1]; D + 20): 0.0%
- Parasitemia, single mice ([1]; D + 20): 0.0%
- Parasitemia, mean of 3 mice ([1]; D + 21): 0.0%
- Parasitemia, single mice ([1]; D + 21): 0.0%
- inhibition at 0.5 µg/mL (L. major promastigotes; 0.5 μg/ml): 12%
- inhibition at 1 µg/mL (L. major promastigotes; 1 μg/ml): 25%
- inhibition at 5 µg/mL (L. major promastigotes; 5 μg/ml): 64%
- inhibition at 10 µg/mL (L. major promastigotes; 10 μg/ml): 92%
- meanMIC (BCG): meanMIC = 8.6 μg/ml
- meanMIC (second line) (BCG): meanMIC = 40 μg/ml (n = 3)
- rangeMIC (BCG): rangeMIC = 5-10 /ml (n = 3)
- stability in buffer without N-acetyl-L-cysteine [2]: No similar decrease
- reaction with N-acetyl-L-cysteine ([2]; acetonitrile-phosphate buffer pH 7.5 (1:3), ambient temperature): decreased amounts of licochalcone A and appearance of two new peaks
- concentration at 24 h ([3]; 24 hours after intravenous 20 mg per kg, detection limit): < 50 ng/mL
- concentration at 1 h ([3]; one hour following intravenous 20 mg per kg): 350 ng/mL
- increase of MIC when supplemented with 10% of serum (Strain = H37RV): 8 fold
- MIC (Strain = H37RV; read-out: MIC+serum): 40 µg/mL (≈ 118 µM)
- MIC (Strain = H37RV; read-out: MIC−serum): 5 µg/mL (≈ 14.8 µM)
- reaction with glutathione [4]: decreased amounts of licochalcone A and appearance of two new peaks
- meanMIC (second line) (M. tuberculosis; n = 2): meanMIC = 40 μg/ml (n = 2)
- meanMIC (M. tuberculosis; n = 19): meanMIC = 7.1 μg/ml
- rangeMIC (M. tuberculosis; n = 19): rangeMIC = 5-10 μg/ml (n = 19)
